Data published in patent publication EP4678643A1, “KRAS INHIBITOR COMPOUND, PHARMACEUTICAL COMPOSITION THEREOF, AND USE THEREOF” (Sunshine Lake Pharma Co., Ltd., priority 2023, dated 2024).
Read-outs that look alike come from different tables or passages of the source.

Legend:
[1] = tested on: pERK in AGS cells (KRAS G12D); assay: Inhibitory effect on intracellular pERK by In-Cell Western assay, AGS; assay type: cell-based; details: pERK inhibition, compound incubation 3 h, read-out: AGS, IC50 (nM) KRAS p.G12D
Procedure: (§1) 1. Determination of Inhibitory Effect on Intracellular pERK by In-Cell Western Assay
(§2) (1) On the first day, the following cells were revived and cultured with the corresponding culture medium and incubated at 37 °C, 5% CO2 until confluence.
(§3) (2) On the third day, the culture medium was removed, the cells were rinsed once with DPBS, 2 mL of TrypLE™ trypsin was added for digestion, and the cells were placed at room temperature until the cells detached. (3) 5 mL fresh culture medium was added to resuspend cells to terminate the digestion, and the cells were gently pipetted and centrifuged at 1000 rpm for 5 minutes at room temperature. (4) The supernatant was removed, and 5 mL fresh culture medium was added to resuspend the cells and count cells. (5) The cells were plated in a 384-well plate with appropriate cell concentration by adjusting with complete culture medium and incubated at 37 °C, 5% CO2 for overnight. (6) 200 nL of the prepared serial dilution compound (DMSO final concentration was 0.5%) was added and incubated at 37 °C, CO2 for 3 h (HPAC cell lines for 1 h). (7) The cells were fixed. (8) The cells were washed twice with PBS. (9) The blocking solution was added and the cells were incubated at room temperature for 1 h. (10) The blocking solution was removed, and the primary antibody (phospho-ERK Rabbit mAb + GAPDH (D4C6R) Mouse mAb) was added and the cells were incubated at 4 °C for overnight. (11) The cells were washed twice with PBST (PBS + 0.05% Tween 20) for 2 minutes each time. (12) PBST was removed and secondary antibody (IRDye 800CW Goat anti-Rabbit IgG (H+L) + IRDye 680RD Goat anti Mouse IgG (H+L)) was added and incubated away from light at room temperature. (14) Secondary antibody was discarded and the cell was washed twice with PBST, 2 minutes each time. (15) 384-well plate was inverted and centrifuged at 1000 rpm at room temperature for 1 minute, and the 384-well plate was scanned with Odyssey CLx.

[2] = tested on: pERK in H358 cells (KRAS p.G12C); assay: Inhibitory effect on intracellular pERK by In-Cell Western assay, H358; assay type: cell-based; details: Homo sapiens, NCI-H358, pERK inhibition, compound incubation 3 h
Procedure: as §1, §2
as §3, with “CLx. (16) Data analysis: • a) Assay stability check was peformed by using DMSO and reference control data: [formula] [formula] • b) nonlinear fitting of Compound IC50: Y = Bottom + (Top−Bottom)/(1+10^(∧)((LogIC50−X)×HillSlope)). [formula]” for “CLx.”

[3] = tested on: pERK in HPAC cells (KRAS p.G12D); assay: Inhibitory effect on intracellular pERK by In-Cell Western assay, HPAC; assay type: cell-based; details: Homo sapiens, pERK inhibition, compound incubation 1 h, read-out: HPAC, IC50 (nM) KRASp.G12D
Procedure: as §1, §2
as §3, with “CLx. (16) Data analysis: • a) Assay stability check was peformed by using DMSO and reference control data: [formula] […]” for “CLx.”

[4] = target: KRAS G12D-GTP & cRAF (Homo sapiens, UniProt P01116, G12D); assay: KRAS G12D/cRAF Binding Assay (HTRF); details: competitive binding, 665/615 nm ratio
Chain of KRAS G12D-GTP & cRAF (P01116 1-188 isoform P01116-2 G12D): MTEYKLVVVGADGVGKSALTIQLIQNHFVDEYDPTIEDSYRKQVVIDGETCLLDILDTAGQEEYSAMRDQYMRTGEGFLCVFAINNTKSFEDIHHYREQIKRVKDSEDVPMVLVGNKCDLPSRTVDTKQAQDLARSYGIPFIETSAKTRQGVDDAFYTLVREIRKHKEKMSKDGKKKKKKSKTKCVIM
Source text: 2. KRAS G12D/cRAF Binding Assay

[5] = tested on: pERK in MKN1 cells (KRAS WTdep); assay: Inhibitory effect on intracellular pERK by In-Cell Western assay, MKN1; assay type: cell-based; details: Homo sapiens, MKN-1, pERK inhibition, compound incubation 3 h
Procedure: as §1, §2
as §3, with “CLx. (16) Data analysis: • a) Assay stability check was peformed by using DMSO and reference control data: [formula] [formula] • b) nonlinear fitting of Compound IC50: Y = Bottom + (Top−Bottom)/(1+10^(∧)((LogIC50−X)×HillSlope)). [formula]” for “CLx.”

[6] = target: KRAS G12D-GTP & SOS1 (Homo sapiens, UniProt P01116, G12D); assay: KRAS G12D/SOS1 Binding Assay (HTRF); details: competitive binding, 665/615 nm ratio
Chain of KRAS G12D-GTP & SOS1 (P01116 1-188 isoform P01116-2 G12D): as above
Source text: 3. KRAS G12D/SOS1 Binding Assay

[7] = tested on: pERK in NCI-H727 cells (KRAS p.G12V); assay: Inhibitory effect on intracellular pERK by In-Cell Western assay, NCI-H727; assay type: cell-based; details: Homo sapiens, pERK inhibition, compound incubation 3 h
Procedure: as §1, §2
as §3, with “CLx. (16) Data analysis: • a) Assay stability check was peformed by using DMSO and reference control data: [formula] […]” for “CLx.”

[8] = in vivo; details: mouse
Procedure: Pharmacokinetic evaluation of the compounds of the present invention by intravenous injection or oral gavage in mice
The inventors conducted a pharmacokinetic evaluation of the compounds of this invention in mice.
The compounds of the present invention were administered to test animals in the form of a solution of 5% DMSO + 30% PEG400 + 65% saline, 10% DMSO + 10% Kolliphor HS15 + 80% Saline, 10% DMSO + 89% (25% SBE-B-CD) + (2% HCl), 20% PEG400 + 80% sterile water for injection, or 10% DMA + 10% HS15 + 30% PEG400 + 50% sterile water for injection. The animals were fasted for 12 hours before administration and had free access to water. For the intravenous administration group, the dose was 2 mg/kg/day, qd. Venous blood samples (approximately 0.15 mL) were collected at the following time points after administration: 0.083, 0.25, 0.5, 1.0, 2.0, 5.0, 7.0 and 24 hours. EDTA-K2 was pre-added to the blood collection tube as an anticoagulant. Blood samples were centrifuged at 12,000 rpm for 2 minutes, and plasma was collected and stored at -20°C or -70°C. For the intravenous administration group, the dose was 5 mg/kg/day, qd. Venous blood samples (approximately 0.15 mL) were collected at the following time points after administration: 0.25, 0.5, 1.0, 2.0, 5.0, 7.0 and 24 hours. EDTA-K2 was pre-added to the blood collection tube as an anticoagulant. Blood samples were centrifuged at 12,000 rpm for 2 minutes, and plasma was collected and stored at -20°C or -70°C.
The collected plasma samples were processed (frozen plasma was thawed at room temperature and vortexed for 15 seconds. 10-20 µL of plasma was added to 120-150 µL of acetonitrile solution containing the internal standard and vortexed for 5 minutes. The sample was centrifuged at 4,000 rpm for 5 minutes. 100 µL of the supernatant was added to 120-150 µL of methanol/water (v/v = 1/1) and mixed). The concentrations of the compounds in the plasma were analyzed by LC-MS/MS.

[9] = tested on: pERK in HCT 116 cells (KRAS p.G13D); assay: Inhibitory effect on intracellular pERK by In-Cell Western assay, HCT 116; assay type: cell-based; details: Homo sapiens, pERK inhibition, compound incubation 3 h
Procedure: as §1, §2
as §3, with “CLx. (16) Data analysis: • a) Assay stability check was peformed by using DMSO and reference control data: [formula] [formula] • b) nonlinear fitting of Compound IC50: Y = Bottom + (Top−Bottom)/(1+10^(∧)((LogIC50−X)×HillSlope)). [formula]” for “CLx.”

[10] = tested on: pERK in A549 cells (KRAS p.G12S); assay: Inhibitory effect on intracellular pERK by In-Cell Western assay, A549; assay type: cell-based; details: Homo sapiens, pERK inhibition, compound incubation 3 h
Procedure: as §1, §2
as §3, with “CLx. (16) Data analysis: • a) Assay stability check was peformed by using DMSO and reference control data: [formula] [formula] • b) nonlinear fitting of Compound IC50: Y = Bottom + (Top−Bottom)/(1+10^(∧)((LogIC50−X)×HillSlope)). [formula]” for “CLx.”

SMILES: C#Cc1nc(-c2cc(O)cc3cccc(Cl)c23)c(F)c2nc(OC[C@@]34CCCN3C[C@H](F)C4)nc(N3CCCOCC3)c12 [Compound 9]
- IC50 ([1]; Homo sapiens, AGS, 3 h): 17.2 nM

SMILES: C#Cc1c(F)ccc2cc(O)cc(-c3nc(C#CCC)c4c(N5CCCOCC5)nc(OCC56CCCN5CC(F)C6)nc4c3F)c12 (stereo not shown) [Compound 3]
- IC50 ([1]; Homo sapiens, AGS, 3 h): 0.5 nM
- IC50 [2]: 0.7 nM
- IC50 [3]: 0.6 nM
- IC50 [4]: 7.4 nM
- IC50 [5]: 3.7 nM
- IC50 [6]: 14.8 nM
- IC50 [7]: 2.2 nM

SMILES: CC#Cc1nc(-c2cc(O)cc3cccc(Cl)c23)c(F)c2nc(OC[C@@]34CCCN3C[C@H](F)C4)nc(N3CCCOCC3)c12 [Compound 23]
- IC50 ([1]; Homo sapiens, AGS, 3 h): 6.1 nM

SMILES: C#Cc1c(F)ccc2cc(O)cc(-c3nc(C#CC)c4c(N5CCCOCC5)nc(OCC5(CN6CCOCC6)CC5)nc4c3F)c12 [Compound 19]
- IC50 ([1]; Homo sapiens, AGS, 3 h): 6.4 nM

SMILES: C#Cc1c(F)ccc2cc(O)cc(-c3nc(C#CCC)c4c(N5CCCCCC5)nc(OC[C@@]56CCCN5C[C@H](F)C6)nc4c3F)c12 [Compound 30]
- IC50 ([1]; Homo sapiens, AGS, 3 h): 6.8 nM

SMILES: C#Cc1c(F)ccc2cc(N)cc(-c3nc(C#CC)c4c(N5CCCOCC5)nc(OC[C@@]56CCCN5C[C@H](F)C6)nc4c3F)c12 [Compound 22]
- IC50 ([1]; Homo sapiens, AGS, 3 h): 2.8 nM

SMILES: C#Cc1c(F)ccc2cc(O)cc(-c3nc(C#CCC)c4c(N5CCCCC(F)C5)nc(OC[C@@]56CCCN5C[C@H](F)C6)nc4c3F)c12 (stereo partly shown) [Compound 26]
- AUC(0-inf) ([8]; iv, 2 mg/kg/day): 8110 ng·h/mL
- AUC(0-t) ([8]; iv, 2 mg/kg/day): 8050 ng·h/mL
- Cmax ([8]; iv, 2 mg/kg/day): 8280 ng/mL
- MRT last ([8]; iv, 2 mg/kg/day): 1.2 h
- Tmax ([8]; iv, 2 mg/kg/day): 0.083 h
- Vd ([8]; iv, 2 mg/kg/day): 0.3 L/kg
- clearance ([8]; iv, 2 mg/kg/day): 4.1 mL/min/kg
- half-life ([8]; iv, 2 mg/kg/day): 1 h
- AUC(0-inf) ([8]; po, 5 mg/kg/day): 4240 ng·h/mL
- AUC(0-t) ([8]; po, 5 mg/kg/day): 4120 ng·h/mL
- Cmax ([8]; po, 5 mg/kg/day): 1630 ng/mL
- MRT last ([8]; po, 5 mg/kg/day): 1.8 h
- Tmax ([8]; po, 5 mg/kg/day): 0.5 h
- half-life ([8]; po, 5 mg/kg/day): 1.3 h
- IC50 ([1]; Homo sapiens, AGS, 3 h): 3.2 nM
- IC50 [9]: 47.3 nM
- IC50 [2]: 3.9 nM
- IC50 [5]: 21.5 nM
- IC50 [10]: 15.1 nM

SMILES: CC#Cc1nc(-c2cc(O)cc3cccc(F)c23)c(F)c2nc(OC[C@@]34CCCN3C[C@H](F)C4)nc(N3CCCOCC3)c12 [Compound 24]
- IC50 ([1]; Homo sapiens, AGS): 5.4 nM

SMILES: CC#Cc1nc(-c2cc(O)cc3ccc(F)c(CC)c23)c(F)c2nc(OCC34CCCN3CCC4)nc(N3CCCCC(=O)C3)c12 [Compound 35]
- IC50 ([1]; Homo sapiens, AGS, 3 h): 4.4 nM

SMILES: C#Cc1c(F)ccc2cc(O)cc(-c3nc(C#CC)c4c(N5CCCOCC5)nc(OCC56CC(=C)CN5CC(=C)C6)nc4c3F)c12 [Compound 14]
- IC50 ([1]; Homo sapiens, AGS, 3 h): 1.2 nM

SMILES: C#Cc1c(F)ccc2cc(O)cc(-c3nc(C#CCOC4CCC4)c4c(N5CCCOCC5)nc(OC[C@@]56CCCN5C[C@H](F)C6)nc4c3F)c12 [Compound 5]
- IC50 ([1]; Homo sapiens, AGS, 3 h): 8.6 nM

SMILES: CCC#Cc1nc(-c2cc(O)cc3ccc(F)c(CC)c23)c(F)c2nc(OC[C@@]34CCCN3C[C@H](F)C4)nc(N3CCCOCC3)c12 [Compound 4]
- IC50 ([1]; Homo sapiens, AGS, 3 h): 7.5 nM

SMILES: C#Cc1c(F)ccc2cc(O)cc(-c3nc(C#CC)c4c(N5CCCOCC5)nc(OCC56CCCN5CC(F)C6)nc4c3F)c12 (stereo not shown) [Compound 17]
- IC50 [1]: 0.8 nM
